{"source": "patent US10799545B2", "about": "“Transdermal delivery of cannabidiol with other active moieties including cannabinoids” (LIFE TECH GLOBAL, LLC, priority 2016, dated 2020)", "key": {"[1]": {"assay": "Franz Diffusion Cell, CBD flux from monolithic adhesive patch through human cadaver skin", "format": "in vitro ADME", "conditions": "monolithic patches: Vistanex LM 5% or 10% CBD, DuroTak 87-2516 10% CBD, BIO PSA 7-4302 5% CBD (FIG. 7)", "procedure": "Formulations of monolithic patches were prepared by solubilizing CBD in different adhesives and CBD transdermal flux was performed through human cadaver skin using Franz Diffusion Cell method. We found the highest transdermal flux of CBD from a formulation that comprises PIB adhesive and 10% CBD.\nA monolithic transdermal device 40 is constructed using a matrix 44 of pure CBD and three different adhesives. A first device 40 includes a PE/PET backing and a matrix 44 comprising 95 percent Vistanex) LM polyisobutylene adhesive by weight of matrix 44 mixed with 5 percent substantially pure CBD by weight of matrix 44. A second device is similarly constructed, but the amount of CBD in the matrix 44 is 10 percent by weight of the matrix 44, and the amount of Vistanex LM is 90 percent by weight of the matrix 44. A third patch is constructed using a DuroTak 87-2516 adhesive in an amount of 90 percent by weight of matrix 44 and 10 percent CBD by weight of matrix 44, and a fourth patch is constructed using a BIO PSA 7-4302 adhesive in an amount of 95 percent by weight of matrix 44 and 5 percent CBD by weight of matrix 44."}, "[2]": {"assay": "Franz Diffusion Cell, CBD flux from reservoir transdermal device through human cadaver epidermis", "format": "in vitro ADME", "procedure": "The effects of using a hydrophobic, porous membrane versus a hydrophilic, porous membrane (such as membrane 24) in reservoir transdermal device 20 are studied in this example. A mixture is formed by dissolving CBD powder in ethanol to yield a solution comprising 10 percent by weight CBD and 90 percent by weight ethanol. The backing 22 is an occlusive backing film (PE/PET from 3M). Hydroxy ethyl cellulose is added to the solution to yield a thixotropic preparation 27. A volume of 300 μL of the preparation is placed in the reservoir 26.\nThe skin adhesive 30 is a BIO PSA 7-4301 adhesive coated to a thickness of 15 g/m^2 on side 36 of membrane 24. An overlay adhesive patch is placed over the reservoir which forms an island in the middle. The overlay assures adhesion of the reservoir to the skin. The device 20 is contacted with a human cadaver epidermis, and diffusion through the epidermis is measured using the Franz Diffusion Cell method.\nIn a first run, membrane 24 is a Lydall® Evopor™ 5E02A, hydrophilic, microporous membrane (of 0.2 μm pore size). In a second run, the device 20 is constructed similarly, but membrane 24 is a hydrophobic Lydall® Solupor™ 7P03A porous membrane.\nThe reservoir device 20 of Example 1 is used, but instead of using ethanol alone as the liquid carrier, a mixture of ethanol and water is used wherein the ethanol comprises 70 percent by weight of the ethanol/water mixture, and water comprises 30 percent by weight of the ethanol/water mixture. The amount of CBD by weight of the combination of CBD and ethanol/water is 5 percent, and the amount of ethanol/water is 91.5 percent. The gelling agent is hydroxyethylcellulose, which is present in an amount of about 3.5% by weight of the preparation 27. […]\nThe device 20 is contacted with a human cadaver epidermis, and diffusion through the epidermis is measured using the Franz Diffusion Cell method. In a first run, the hydrophilic, porous membrane 24 of Example 1 is used. In a second run, the membrane 24 is omitted so that CBD diffuses directly through the skin adhesive 30.\nThis example is conducted using three reservoir transdermal devices such as those of Example 1, with each having the hydrophilic, porous membrane described therein. In each case, the preparation includes a mixture of CBD and a liquid carrier with ten (10) percent CBD by weight of the CBD/liquid carrier mixture. Three runs are conducted, each with a device that includes a different liquid carrier in its preparation 27: 1, 2 propylene glycol, PEG-300, and oleic acid. Diffusion through a human cadaver epidermis is measured using the Franz Diffusion Method.\nThis example is similar to Example 3, except that an ethanol carrier is also tested. As stated above, FIG. 6 is a graph depicting the cumulative flux (μg/cm^2) of CBD through a human cadaver epidermis over a six hour period from solutions comprising ten (10) percent by weight CBD and 90 percent by weight of one of four liquid carriers."}, "[3]": {"conditions": "10% CBD / 90% liquid carrier, six hour period (FIG. 6)"}}, "note": "“Also recorded” adds a separate entry of the source."}
{"smiles": "C=C(C)[C@@H]1CCC(C)=C[C@H]1c1c(O)cc(CCCCC)cc1O", "note": "[CBD, Cannabidiol]", "values": [{"measurement": "transdermal flux of CBD, PIB (Vistanex LM) adhesive / 10% CBD relative to the other monolithic formulations", "setting": "[1]", "result": "superior; also recorded: highest"}, {"measurement": "permeability of CBD through the skin, with versus without membrane 24", "setting": "[2]; 5% CBD in ethanol/water 70/30, hydrophilic porous membrane used or omitted (FIG. 4)", "result": "the same"}, {"measurement": "cumulative flux of CBD, hydrophilic membrane device versus hydrophobic membrane device", "setting": "[2]; 10% CBD / 90% ethanol, hydrophilic Evopor 5E02A membrane, after about 9 hours (FIG. 3)", "result": "significantly exceeds"}, {"measurement": "rate of transfer of CBD through the skin, oleic acid versus 1,2 propylene glycol or PEG-300", "setting": "[2]; 10% CBD / 90% liquid carrier, hydrophilic membrane, six hour period (FIG. 5)", "result": "significantly better"}, {"measurement": "transfer of CBD through the skin, ethanol relative to 1,2 propylene glycol and PEG-300", "setting": "[2]; [3]", "result": "superior"}, {"measurement": "transfer of CBD through the skin, oleic acid relative to ethanol, 1,2 propylene glycol and PEG-300", "setting": "[2]; [3]", "result": "superior"}, {"measurement": "expected daily dose, reservoir device relative to monolithic patch of the same skin contact area", "setting": "[2]; 20 cm^2 skin contact area", "result": "six times higher"}, {"measurement": "cumulative flux of cannabidiol (CBD)", "setting": "[2]; reservoir device, 5% by weight CBD and 70% by weight ethanol liquid carrier, at 12 hours", "result": 110, "unit": "micrograms/cm^2"}, {"measurement": "cumulative flux of cannabidiol (CBD)", "setting": "[2]; reservoir device, 5% by weight CBD and 70% by weight ethanol liquid carrier, at 24 hours", "result": 300, "unit": "micrograms/cm^2"}, {"measurement": "cumulative flux of CBD, asymptotic value", "setting": "[2]; reservoir device, 10% CBD / 90% ethanol, hydrophobic Solupor 7P03A porous membrane (FIG. 3)", "result": "about 300 μg/cm^2"}, {"measurement": "cumulative flux of cannabidiol (CBD)", "setting": "[2]; reservoir device, 10% by weight CBD and 90% by weight ethanol liquid carrier, hydrophilic porous membrane, at 7 hours", "result": 150, "unit": "micrograms/cm^2"}, {"measurement": "cumulative flux of cannabidiol (CBD)", "setting": "[2]; reservoir device, 10% by weight CBD and 90% by weight ethanol liquid carrier, hydrophilic porous membrane, at 17 hours", "result": 700, "unit": "micrograms/cm^2"}, {"measurement": "cumulative flux of cannabidiol (CBD)", "setting": "[2]; reservoir device, 10% by weight CBD and 90% by weight oleic acid, over six hours", "result": 180, "unit": "micrograms/cm^2"}, {"measurement": "cumulative flux of cannabidiol (CBD)", "setting": "[2]; reservoir device, ethanol liquid carrier, over 6 hours", "result": 70, "unit": "micrograms/cm^2"}, {"measurement": "transdermal delivery of CBD from saturated ethanol solution versus monolithic patch", "setting": "[2]; reservoir patch formulation", "result": "significantly higher"}]}
